# Measurements: patent US9593305B2, “Differentiation of pluripotent stem cells” (Janssen Biotech, Inc., priority 2008, dated 2017)
# Legend:
# Type in all cases: cell-based
# [1] = test system: H1 human embryonic stem cells; assay: Analog screening with GDF-8 and growth factor/agonist pool (Example 8, Tables 7 and 8)
# How it was run: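 H1 hESC clusters, washed free of growth factors, fed on alternate days over 4 days with DMEM:F12, 0.5% FCS, 2.5 μM compound, 25 ng/ml GDF-8 plus a 50 ng/ml growth-factor pool. Fixed cells immunostained for SOX17 and imaged; total SOX17 intensity normalised to positive control.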
# [2] = test system: H1 human embryonic stem cells; assay: Analogue screening in combination with only GDF-8, SOX17 (Example 21, Tables 18 and 19); set-up: Sox17 Expression: % of positive control / Cell Number: % of positive control: tested at 2.5 µM; details: compound in combination with GDF8;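 also: cells treated with 200 ng/ml GDF-8 in DMEM:F12 with FCS over four days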
# How it was run: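 H1 human ES cells treated four days with 200 ng/ml GDF-8 plus 2.5 μM compound (day 1, 0.5% FCS), GDF-8 alone in 2% FCS on day 3; triplicates. Fixed cells immunostained for SOX17 with Hoechst counterstain, imaged at 15 fields/well; total SOX17 intensity normalized to activin A/Wnt3a positive control.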
# [3] = test system: H1 human embryonic stem cells; assay: Single-cell monolayer assay with EGF/FGF4, serum free, no activin A (Example 10, Table 10); details: No AA (with Wnt3a), FGF none
# Protocol: Briefly, clusters of H1 human embryonic stem cells were grown on reduced growth factor […]™ (Invitrogen; Cat #356231)-coated tissue culture plastic. Cultures were treated with Accutase (Sigma; Cat #A6964), using equivalent volumes of […] surface area for 5 minutes at 37° C., then gently resuspended, pelleted by centrifugation, and resuspended in MEF conditioned medium for counting. For assay seeding, cells were plated at 50,000 cells/cm^2 on reduced growth factor […]™-coated 96-well black plates (Packard ViewPlates; Cat #6005182) using volumes of 100 μl/well. Cells were allowed to attach and recover log phase growth over a 3 to 5 day period, feeding daily with MEF conditioned medium supplemented with 8 ng/ml bFGF (R&D Systems; Cat #233-FB). Plates were maintained at 37° C., 5% CO2 in a humidified box throughout the duration of assay.
# Stocks of EGF and FGF4 were prepared in a 96-well polypropylene plate (Corning, Inc.; Cat #3960). Compound 22 was available as a 5 mM stock solubilized in 100% DMSO (Sigma; Cat #D2650) and stored at −80° C. Assays were initiated by aspirating culture medium from each well followed by three washes in PBS to remove residual growth factors and serum. […]
# On the second day of assay, wells were again aspirated and fed with 80 μl per well were added back containing RPMI 1640 base medium supplemented with 2.5% fatty acid free BSA, 10 ng/ml bFGF, and 3.125 μM Compound 22 plus 20 μl 5× stock of growth factors to yield a final concentration of 2% fatty acid free BSA, 8 ng/ml bFGF and 2.5 μM Compound 22 in assay. Positive control wells contained the same base medium supplemented with 2% fatty acid free BSA, 8 ng/ml bFGF and 100 ng/ml recombinant human activin A. Negative control samples contained the same base medium supplemented with 2% fatty acid free BSA and 8 ng/ml bFGF but omitted treatment with activin A.
# At the conclusion of four-days of culture, assay plates were washed twice with PBS, fixed with 4% paraformaldehyde (Alexis Biochemical; Cat #ALX-350-011) at room temperature for 20 minutes, then washed three times with PBS and permeabilized with 0.5% Triton X-100 (Sigma; Cat #T8760-2) for 20 minutes at room temperature. Cells were washed again three times with PBS and blocked with 4% chicken serum (Invitrogen; Cat #16110082) in PBS for 30 minutes at room temperature. Primary antibody (goat anti-human SOX17; R&D Systems; cat #AF1924) was diluted 1:100 in 4% chicken serum and added to each well for one hour at room temperature. Alexa Fluor 488 conjugated secondary antibody (chicken anti-goat IgG; Molecular Probes; Cat #AZ1467) was diluted 1:200 in PBS and added to each sample well after washing three times with PBS. To counterstain nuclei, 4 μg/ml Hoechst 33342 (Invitrogen; Cat #H3570) was added for ten minutes at room temperature. Plates were washed once with PBS and left in 100 μl/well PBS for imaging.
# Imaging was performed using an IN Cell Analyzer 1000 (GE Healthcare) utilizing the 51008bs dichroic for cells stained with Hoechst 33342 and Alexa Fluor 488. Exposure times were optimized from positive control wells and from untreated negative control wells stained with secondary antibody alone. Images from 15 fields per well were acquired to compensate for any cell loss during the bioassay and subsequent staining procedures. Measurements for total cell number and total SOX17 intensity were obtained from each well using IN Cell Developer Toolbox 1.7 (GE Healthcare) software. Segmentation for the nuclei was determined based on gray-scale levels (baseline range 100-300) and nuclear size. Averages and standard deviations were calculated for each replicate data set. Total SOX17 protein expression was reported as total intensity or integrated intensity, defined as total fluorescence of the cell multiplied by the area of the cell. Background was eliminated based on acceptance criteria of gray-scale ranges between 200 to 3500. […]
# [4] = test system: H1 human embryonic stem cells; assay: Secondary assay: compound combined with individual growth factors or small molecules, no activin A (Example 5, Table 4); details: growth factor 50 ng/ml combined with 2.5 μM compound and Wnt3a, no activin A
# Protocol: Clusters of H1 human embryonic stem cells were grown on reduced growth factor […]™ (Invitrogen; Cat #356231)-coated tissue culture plastic. Cells were passaged using collagenase (Invitrogen; Cat #Cat #17104-019) treatment and gentle scraping, washed to remove residual enzyme, and plated with even dispersal at a ratio of 1:1 (surface area) on reduced growth factor […]™-coated 96-well black plates (Packard ViewPlates; PerkinElmer; Cat #6005182) using volumes of 100 μl/well. Cells were allowed to attach as clusters and then recover log phase growth over a 1 to 3 day period, feeding daily with MEF conditioned medium supplemented with 8 ng/ml bFGF (R&D Systems; Cat #233-FB). Plates were maintained at 37° C., 5% CO2 in a humidified box throughout the duration of assay.
# Other agents tested were purchased as follows: BMP-7 (Sigma; Cat #B1434), LY294002 (Cayman; Cat 70920), PD98059, U0126, U0124 (EMD Biosciences; Cat #453710), muscimol (Tocris; Cat #0289), biuculline (Tocris; Cat #0130), sodium butyrate (Sigma; Cat #B5887). All growth factors were solubilized in PBS with 0.1% BSA (Sigma; Cat #A7888) and stored frozen at −80° C. Small molecules were solubilized in 100% DMSO (Sigma; Cat #D2650) and stored frozen at −80° C. The compounds were available as 5 mM stocks in 96-well plate format, solubilized in 100% DMSO and stored at −80° C. The compounds of the present invention were further diluted to an intermediate concentration of 0.2 mM in 50 mM HEPES (Invitrogen; Cat #15630-080), 20% DMSO and stored at 4° C. All growth factors and inhibitors were prepared in a deep well, 96-well polypropylene plate, diluted to 5× intermediate stocks in DMEM:F12 base medium at the beginning of assay and stored at 4° C.
# A secondary screening assay was conducted, testing in triplicate and feeding on alternate days over the four-day assay timeframe. Assays were initiated by aspirating culture medium from each well followed by three washes in PBS to remove residual growth factors and serum. Test volumes of 80 μl per well were added back containing DMEM:F12 base medium (Invitrogen; Cat #11330-032) supplemented with 0.625% FCS (HyClone; Cat #SH30070.03), 25 ng/ml Wnt3a (R&D Systems), and 3.125 μM compound plus 20 μl 5× stock of growth factor or small molecule to yield a final concentration of 0.5% FCS, 20 ng/ml Wnt3a, and 2.5 μM compound. […] Final assay concentrations of small molecules tested were as follows: muscimol (20 μM), PD98059 (1 μM), LY294002 (2.5 μM), 00124 (1 μM), U0126 (1 μM), sodium butyrate (0.5 mM). Positive control wells (100 μl/well) contained the same base medium supplemented with 0.5% FCS, 20 ng/ml Wnt3a and 100 ng/ml activin A. Negative control wells (100 μl/well) contained the same base medium with 0.5% FCS and 20 ng/ml Wnt3a, omitting activin A.
# On day 3, wells were aspirated and fed with 80 μl DMEM:F12 base medium supplemented with 2.5% FCS (HyClone) and 3.125 μM cyclic aniline-pyridinotriazine compound plus 20 μl 5× stock of growth factors or small molecules per well to yield a final concentration of 2% FCS and 2.5 μM compound (omitting Wnt3a) and as denoted on day one for all remaining growth factors or small molecules. Positive control wells (100 μl/well) contained the same base medium supplemented with 2% FCS and 100 ng/ml activin A, omitting Wnt3a. Negative control wells (100 μl/well) contained the same base medium with 2% FCS, omitting both activin A and Wnt3a.
# At the conclusion of four-days of culture, assay plates were washed twice with PBS, fixed with 4% paraformaldehyde (Alexis Biochemical; Cat #ALX-350-011) at room temperature for 20 minutes, then washed three times with PBS and permeabilized with 0.5% Triton X-100 (Sigma; Cat #T8760-2) for 20 minutes at room temperature. Cells were washed again three times with PBS and blocked with 4% chicken serum (Invitrogen; Cat #16110082) in PBS for 30 minutes at room temperature.
# [5] = Plate 2, compound + EGF, FGF, PDGF-A, VEGF, PDGF-D, muscimol, GDF8
# [6] = Plate 2, compound + EGF, FGF, PDGF-A, VEGF, PDGF-D, muscimol, GDF8, positive control Activin A/Wnt3a
# [7] = Table 8: hits with greater than 25% activity of the positive control, with GDF-8 and growth factors/agonists
# [8] = relative to Activin A/Wnt3a of the same plate
Compound,"Cell Number, Average Total Cell Number [1, 5]","Sox17 Expression, Average Total Intensity [1, 5]","Cell Number, % of positive control [1, 6]","Sox17 Expression, % of positive control [1, 6]","Cell Number, % of positive control [1, 7]","Sox17 Expression, % of positive control [1, 7]","Sox17 Expression, Average Total Intensity [1, 7]",Cell Number: Average Total Cell Number ([2]; four assay plates),Sox17 Expression: Average Total Intensity ([2]; four assay plates),"Cell Number: % of positive control [2, 8]","Sox17 Expression: % of positive control [2, 8]","Cell Number, % of positive control ([3]; EGF(50 ng/ml))","Cell Number, Average Total Cell Number ([3]; EGF(50 ng/ml))","Sox17 Expression, % of positive control ([3]; EGF(50 ng/ml))","Sox17 Expression, Average Total Intensity ([3]; EGF(50 ng/ml))","Cell Number, % of positive control ([3]; EGF(100 ng/ml))","Cell Number, Average Total Cell Number ([3]; EGF(100 ng/ml))","Sox17 Expression, % of positive control ([3]; EGF(100 ng/ml))","Sox17 Expression, Average Total Intensity ([3]; EGF(100 ng/ml))",increase in SOX17 expression (% of the activin A/Wnt3a control) [4]
"CN1CCCC(=O)NCCc2cccc(c2)Nc2ncnc(n2)-c2cccc(c2)CCC1 [Compound 33, 20-Methyl-3,5,7,15,20,30-hexaazatetracyclo[22.3.1.1˜2,6˜0.1˜8,12˜]triaconta-1(28), 2(30), 3,5,8(29), 9,11,24,26-nonaen-16-one]",7485,8.10E+07,47.4 % of positive control,28.3 % of positive control,47.4 % of positive control,28.3 % of positive control,8.10E+07,2362,6.60E+06,15.4%,2.0%,–,–,–,–,–,–,–,–,–
EGF: growth factor purchased from R&D Systems,–,–,–,–,–,–,–,–,–,–,–,43.85%,5558,18.44%,5.01E+07,53.79%,6818,23.62%,6.42E+07,34%
